Source: patent US10774110B2, “Rapadocins, inhibitors of equilibrative nucleoside transporter 1 and uses thereof” (The Johns Hopkins University, priority 2016, dated 2020)
Like-named read-outs stand apart in the source and are kept apart here.

Key:
[1] = biological target: T1, ENT1 (Homo sapiens, UniProt P62942+Q99808); assay: 3H-Thymidine uptake, potency of Rapadocin analogs (Table 2); format: cell-based; set-up: endogenous in cells
From the text: (§1) Rapadocin is a synthetic macrocycle composed of two ‘domains’—a FKBD (FKBP12 binding domain) and a peptide domain. […] The peptidic fragment can tolerate a range of modifications with varying effects on ENT1 inhibition.
Table 2 discloses the potency of various Rapadocin analogs.
Target sequence in this assay (Q99808 2-456 limits assumed): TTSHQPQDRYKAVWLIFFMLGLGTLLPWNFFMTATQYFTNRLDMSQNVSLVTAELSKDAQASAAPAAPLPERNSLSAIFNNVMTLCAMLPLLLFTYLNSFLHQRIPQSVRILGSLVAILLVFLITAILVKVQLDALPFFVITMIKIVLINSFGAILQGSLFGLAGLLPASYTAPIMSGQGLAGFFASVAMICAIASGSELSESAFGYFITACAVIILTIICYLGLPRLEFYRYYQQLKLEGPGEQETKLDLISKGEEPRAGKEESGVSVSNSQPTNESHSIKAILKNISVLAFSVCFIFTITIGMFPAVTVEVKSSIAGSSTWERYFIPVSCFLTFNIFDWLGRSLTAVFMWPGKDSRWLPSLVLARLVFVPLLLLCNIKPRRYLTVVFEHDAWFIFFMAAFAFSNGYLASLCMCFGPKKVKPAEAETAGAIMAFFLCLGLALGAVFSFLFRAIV
Target sequence in this assay (P62942 2-108 limits assumed): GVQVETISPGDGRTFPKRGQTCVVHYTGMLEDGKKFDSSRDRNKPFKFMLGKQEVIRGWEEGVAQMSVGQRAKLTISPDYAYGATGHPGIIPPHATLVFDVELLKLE

[2] = test system: HUVEC; assay: 3H-Thymidine uptake in HUVEC; format: cell-based, human
From the text: FIG. 2. Rapadocin inhibits ^3H-Thymidine uptake in Human Umbilical Vein Endothelial Cells (HUVEC).
(§2) uptake in at least seven cell lines and is predicted to inhibit nucleoside uptake in all human cell lines (see e.g., FIG. 2 and Table 1).

[3] = test system: 293T; assay: 3H-Thymidine uptake in 293T; format: cell-based, human
From the text: as §2

[4] = test system: RKO; assay: 3H-Thymidine uptake in RKO; format: cell-based, human
From the text: as §2

[5] = test system: A549; assay: 3H-Thymidine uptake in A549; format: cell-based, human
From the text: as §2

[6] = test system: HeLa; assay: 3H-Thymidine uptake in HeLa; format: cell-based, human
From the text: as §2

[7] = test system: MCF-7; assay: 3H-Thymidine uptake in MCF-7; format: cell-based, human
From the text: as §2

[8] = test system: MDA MB-231; assay: 3H-Thymidine uptake in MDA MB-231; format: cell-based, human
From the text: as §2

[9] = biological target: T1, ENT1; assay: 3H-Adenosine / nucleoside uptake by hENT1 (vs hENT2); format: cell-based
From the text: FIG. 1. Rapadocin inhibits ^3H-Adenosine uptake by specifically inhibiting hENT1.
Rapadocin inhibits nucleoside
Target sequence in this assay (Q99808 whole entry, the tested form may be a part): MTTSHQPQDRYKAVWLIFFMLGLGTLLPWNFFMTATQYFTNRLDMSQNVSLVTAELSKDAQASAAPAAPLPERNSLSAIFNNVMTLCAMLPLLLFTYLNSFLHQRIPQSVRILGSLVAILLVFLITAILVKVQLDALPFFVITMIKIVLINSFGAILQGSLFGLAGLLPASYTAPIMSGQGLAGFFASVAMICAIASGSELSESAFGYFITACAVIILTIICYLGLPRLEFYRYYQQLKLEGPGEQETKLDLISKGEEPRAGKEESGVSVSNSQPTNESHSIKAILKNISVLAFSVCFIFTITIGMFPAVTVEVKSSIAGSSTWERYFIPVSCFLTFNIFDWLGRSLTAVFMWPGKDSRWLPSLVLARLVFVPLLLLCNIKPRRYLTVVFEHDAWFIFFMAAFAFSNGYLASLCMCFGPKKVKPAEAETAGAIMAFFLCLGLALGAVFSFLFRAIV
Target sequence in this assay (P62942 2-108 limits assumed): as the sequence (P62942 2-108 limits assumed) above

[10] = biological target: T2, FKBP12 (Homo sapiens, UniProt P62942); assay: Antagonism of uptake inhibition by FKBP12-binders; format: cell-based; conditions: FIG. 3
T2 construct: endogenous in cells
From the text: FIG. 3. Rapadocin's uptake inhibition is antagonized by FKBP12-binders Rapamycin and FK506.

[11] = test system: platelet aggregation in human blood; assay: Platelet aggregation in human blood activated by ADP; format: cell-based; conditions: FIG. 4
From the text: (§3) Two human and animal models have been studied to show the efficacy of Rapadocin (FIGS. 4 and 5). Under several physiological conditions, adenosine is released into the blood where it can act on adenosine receptors. Normally, this adenosine (ADO) is rapidly reabsorbed via ENT1. In the presence of Rapadocin, uptake is inhibited and ADO is able to produce enhanced signaling leading to several potentially beneficial physiological responses.

[12] = test system: kidney ischemia reperfusion injury; assay: Kidney ischemia reperfusion injury mouse model; format: in vivo
From the text: as §1, §3

[13] = Solubility in aqueous solutions; format: physicochemical
[14] = Stability in cell culture media; format: physicochemical; conditions: 5 days, 37° C., 10% Fetal Bovine Serum

T2 sequence (P62942 whole entry): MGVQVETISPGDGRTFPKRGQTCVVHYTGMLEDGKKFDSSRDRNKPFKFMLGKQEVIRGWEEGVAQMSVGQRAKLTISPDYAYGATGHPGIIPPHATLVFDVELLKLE

c1ccc2sccc2c1 [Analog 95-15-8]
EC50 ([1]; cells printed with uM, read-out: EC50 3H-Tymidine uptake): > 1 µM

COc1ccc(CC[C@H]2OC(=O)[C@@H]3CCCCN3C(=O)C(=O)C(C)(C)COC(=O)C=CCCN(C)C(=O)[C@H](CC(C)C)N(C)C(=O)[C@@H]3CCCN3C(=O)[C@H](Cc3ccc(OCC(=O)NCCOCCOCCNC(=O)CCCCC4SCC5NC(=O)NC54)cc3)NC(=O)[C@H](c3ccccc3)NC(=O)CCC(=O)Nc3cccc2c3)cc1OC (some centres unmarked) [JW95TyrBiotin]
EC50 [1]: 0.064 µM

C#CCCC1(CCOc2ccc(C[C@@H]3NC(=O)[C@H](c4ccccc4)NC(=O)CCC(=O)Nc4cccc(c4)[C@@H](CCc4ccc(OC)c(OC)c4)OC(=O)C4CCCCN4C(=O)C(=O)C(C)(C)COC(=O)C=CCCN(C)C(=O)[C@H](CC(C)C)N(C)C(=O)[C@@H]4CCCN4C3=O)cc2)N=N1 (some centres unmarked) [JW95TyrDiaz]
EC50 [1]: 0.02 µM

COc1ccc(CC[C@H]2OC(=O)[C@@H]3CCCCN3C(=O)C(=O)C(C)(C)COC(=O)/C=C/CCN(C)C(=O)[C@H](CC(C)C)N(C)C(=O)[C@H]3CCCN3C(=O)[C@H](Cc3ccccc3)N(C)C(=O)[C@H](c3ccccc3)NC(=O)CCC(=O)Nc3cccc2c3)cc1OC [Rapadocin]
EC50 [2]: 6.4 nM | 3H-Thymidine uptake inhibition ([2]; FIG. 2): inhibits | EC50 [3]: 5 nM | EC50 [4]: 11.4 nM | EC50 [5]: 6.3 nM | EC50 [6]: 16.3 nM | EC50 [7]: 9 nM | EC50 [8]: 41.1 nM | 3H-Adenosine uptake inhibition ([9]; FIG. 1, by specifically inhibiting hENT1): inhibits | inhibition of nucleoside uptake by hENT1 over hENT2 ([9]; selectivity hENT1 over hENT2, FIG. 1): potently and specifically inhibits | uptake inhibition in presence of FKBP12-binders Rapamycin and FK506 [10]: antagonized | platelet aggregation [11]: inhibits platelet aggregation | tolerability in animals ([12]; kidney ischemia model): safely tolerated | protection against kidney ischemia reperfusion injury ([12]; mouse model, FIG. 5): protects against kidney ischemia reperfusion injury | solubility [13]: ≤ 10 µM | resistance to degradation [14]: resist degradation over 5 days | EC50 [1]: 0.00616 µM
